Article PMC13308190, “Endothelial progenitor cell susceptibility to DNA damaging and DDR-modulating compounds determines endothelial differentiation accuracy” (Stem Cell Research & Therapy, 2026)

Legend:
Type in all cases: cell-based, mouse
mESC [1] = test: EdU incorporation (S-phase activity); settings: mESC 24 h
Experimental: S-phase activity of cells was monitored by measuring EdU incorporation using the EdU-Click 488 assay according to the manufacturer’s protocol. Briefly, cells were pulse-treated with 5-ethynyl-2′-deoxyuridine (EdU) for 3 h. Alexa Fluor 488-conjugated reaction cocktail was added (30 min, RT) and nuclei were counterstained with DAPI. The percentage of EdU-positive area/DAPI-positive area was calculated by fluorescence microscopy (Olympus BX43, 20x objective).

EC d6 = test: ZO1 tight junction immunofluorescence; settings: analysed 2 days later
EC d4 [2] = test: Dil-acLDL uptake; settings: EC d4 treated 48 h
Experimental: (§1) To monitor prototypical functions of endothelial cells, the uptake of fluorescent 1,1-dioctadecyl-3,3,3,3-tetra-methylindocarbocyanine-labeled acetylated LDL (Dil-acLDL) was examined. Briefly, cells were incubated with Dil-acLDL (10 µg/ml, 4 h, 37 °C). After fixation (3.7% cold formaldehyde/PBS (15 min, RT) nuclei were counterstained with DAPI. The uptake of DiI-acLDL was analyzed by fluorescence microscopy (Olympus BX43, 20x objective). Additionally, the response of differentiated EC to inflammatory cytokines was measured. After treatment with a pro-inflammatory cytokine mixture (TNFα/IL-1β, 10 ng/mL) for 1 h, mRNA expression of activated EC markers E-selectin, Icam-1, Vcam-1, Ccl2, eNos, iNos was analyzed (RT-qPCR).

mESC [3] = test: Nuclear γH2AX / 53BP1 foci (DSB); settings: mESC 24 h, equitoxic concentrations
Experimental: (§2) DNA double-strand breaks were monitored by immunocytochemical detection of nuclear γH2AX and 53BP1 foci. Cells were fixed with 3.7% formaldehyde/PBS (15 min, RT) and permeabilized (0.3% TritonX/PBS; 15 min, RT). […] Cell suspension was mixed with 0.5% low melting point agarose and applied onto glass slides coated with 1.5% agarose. After lysis in alkaline buffer (pH 10, 1 h, 4 °C, protected from light) and DNA denaturation in precooled electrophoresis buffer (pH > 13, 25 min, 4 °C, protected from light) electrophoresis was performed (300 mA, 25 V, 4 °C, 25 min).

EC d4 [4] = test: Nuclear γH2AX / 53BP1 foci (DSB); settings: EC d4 48 h, equitoxic concentrations
Experimental: as §2

EC d4 [5] = test: VE-cadherin cell-cell junction immunostaining; settings: EC d4 treated 48 h
[6] = test system: EC d4 (endothelial progenitor cells); test: RT-qPCR mRNA expression; settings: for Ccl2 mRNA / E-selectin mRNA / Icam-1 mRNA / Vcam-1 mRNA / eNos mRNA / iNos mRNA: Fig 8D; for Cdkn1a mRNA / Cdkn2a mRNA / Glb1 mRNA / Il6 mRNA / Il8 mRNA / Tp53 mRNA: Fig 7B
Experimental: Total RNA was purified using the RNeasy Mini Kit (Qiagen, Hilden, Germany). Reverse transcriptase (RT) reaction was performed with the HighCapacity cDNA Reverse Transcription Kit (Applied Biosystems, Darmstadt, Germany) using 900–2000 ng of RNA. Quantitative RT-qPCR analysis was performed using following conditions: (1) 95 °C–10 min; (2) 45 amplification cycles with 95 °C–15 s, 55 °C–15 s, and 72 °C–17 s; (3) 95 °C–1 min, 55 °C–1 min, 65 °C–5 s. If not stated otherwise, analyses were performed in technical triplicates using pooled samples from two independent experiments (each performed with biological duplicates) by use of a CFX96 cycler (BioRad) and the SensiMix SYBR Kit (Bioline, London, UK). The primers used for mRNA expression analyses are listed in Supplementary Table 1. To ensure the specificity of the amplification product, melting curves were recorded at the end of the run. mRNA expression levels were normalized to β-Actin and Gapdh. Relative mRNA expression in mESC or corresponding untreated controls was set to 1.0. Only changes in gene expression of ≤ 0.5- and ≥ 2-fold were considered as biologically relevant.
as §1

[7] = EC d4 + 5 µM 48 h, analysed in EC d6
[8] = EC d4 + 5 µM 48 h, then + I/T (IL-1β/TNFα 10 ng/ml, 1 h)
[9] = EC d4 + 15 µM 48 h, analysed day 6, Fig 1C
[10] = EC d4 + 15 µM 48 h, analysed in EC d6
[11] = EC d4 + 15 µM 48 h, then + I/T (IL-1β/TNFα 10 ng/ml, 1 h)

Compound: O=c1c2ccccc2nc(/C=C/c2cccnc2)n1Cc1ccccc1 [B02]
- number of EdU-positive cells (mESC [1]): not
- ZO1 assembly in treated EC d6 (EC d6): clearly visible gaps
- LDL uptake in EC d6 progeny of treated EC d4 (EC d4 [2]): strongest functional defect
- nuclear γH2AX foci (mESC [3]): significant increase
- DSB numbers (γH2AX / 53BP1 foci) (EC d4 [4]): clear increase
- VE-cadherin cell-cell junctions in EC d6 differentiated from treated EC d4 (EC d4 [5]): did not trigger defects
- Ccl2 mRNA [6, 7]: 2.96 Fold of untreated control
- E-selectin mRNA [6, 7]: 120.46 Fold of untreated control
- Icam-1 mRNA [6, 7]: 3.12 Fold of untreated control
- Vcam-1 mRNA [6, 7]: 0.19 Fold of untreated control
- eNos mRNA [6, 7]: 153.40 Fold of untreated control
- iNos mRNA [6, 7]: 2.01 Fold of untreated control
- Ccl2 mRNA [6, 8]: 279.77 Fold of untreated control
- E-selectin mRNA [6, 8]: 257.65 Fold of untreated control
- Icam-1 mRNA [6, 8]: 9.69 Fold of untreated control
- Vcam-1 mRNA [6, 8]: 0.36 Fold of untreated control
- eNos mRNA [6, 8]: 184.04 Fold of untreated control
- iNos mRNA [6, 8]: 2.26 Fold of untreated control
- Cdkn1a mRNA ([6]; EC d4 + 5 µM 48 h): 1.71 Fold of untreated control
- Cdkn2a mRNA ([6]; EC d4 + 5 µM 48 h): 1.24 Fold of untreated control
- Glb1 mRNA ([6]; EC d4 + 5 µM 48 h): 1.45 Fold of untreated control
- Il6 mRNA ([6]; EC d4 + 5 µM 48 h): 0.80 Fold of untreated control
- Il8 mRNA ([6]; EC d4 + 5 µM 48 h): 0.83 Fold of untreated control
- Tp53 mRNA ([6]; EC d4 + 5 µM 48 h): 0.98 Fold of untreated control
- Flk1 mRNA [6, 9]: 6.99 Fold of mESC
- Nanog mRNA [6, 9]: 0.03 Fold of mESC
- Oct4 mRNA [6, 9]: 0.01 Fold of mESC
- Pecam1 mRNA [6, 9]: 0.62 Fold of mESC
- Tie1 mRNA [6, 9]: 29.11 Fold of mESC
- VE-cad mRNA [6, 9]: 484.74 Fold of mESC
- Ccl2 mRNA [6, 10]: 0.38 Fold of untreated control
- E-selectin mRNA [6, 10]: 126.11 Fold of untreated control
- Icam-1 mRNA [6, 10]: 1.02 Fold of untreated control
- Vcam-1 mRNA [6, 10]: 0.08 Fold of untreated control
- eNos mRNA [6, 10]: 47.93 Fold of untreated control
- iNos mRNA [6, 10]: 0.43 Fold of untreated control
- Ccl2 mRNA [6, 11]: 84.86 Fold of untreated control
- E-selectin mRNA [6, 11]: 165.16 Fold of untreated control
- Icam-1 mRNA [6, 11]: 2.52 Fold of untreated control
- Vcam-1 mRNA [6, 11]: 0.12 Fold of untreated control
- eNos mRNA [6, 11]: 55.08 Fold of untreated control
- iNos mRNA [6, 11]: 0.33 Fold of untreated control
- Brca1 mRNA ([6]; EC d4 + 15 µM 48 h, Fig 5C): 0.27 Fold of mESC
- Chk1 mRNA ([6]; EC d4 + 15 µM 48 h, Fig 5C): 0.92 Fold of mESC
- Rad51 mRNA ([6]; EC d4 + 15 µM 48 h, Fig 5C): 0.19 Fold of mESC
- Pgc1a mRNA ([6]; EC d4 + 15 µM 48 h, Fig 6D): 0.11 Fold of untreated control
- Cdkn1a mRNA ([6]; EC d4 + 15 µM 48 h): 2.57 Fold of untreated control
- Cdkn2a mRNA ([6]; EC d4 + 15 µM 48 h): 1.39 Fold of untreated control
- Glb1 mRNA ([6]; EC d4 + 15 µM 48 h): 2.55 Fold of untreated control
- Il6 mRNA ([6]; EC d4 + 15 µM 48 h): 1.35 Fold of untreated control
- Il8 mRNA ([6]; EC d4 + 15 µM 48 h): 0.85 Fold of untreated control
- Tp53 mRNA ([6]; EC d4 + 15 µM 48 h): 0.72 Fold of untreated control
- Cldn5 mRNA ([6]; EC d4 + 15 µM 48 h, Fig 8C): 0.18 Fold of EC d4 or d6
- Ocln mRNA ([6]; EC d4 + 15 µM 48 h, Fig 8C): 1.16 Fold of EC d4 or d6
- Tjp1 mRNA ([6]; EC d4 + 15 µM 48 h, Fig 8C): 1.26 Fold of EC d4 or d6
- Ldlr mRNA ([6]; EC d4 + 15 µM 48 h, Fig 8F): 1.78 Fold of untreated control
